The record followed here is US20240269139A1, “COMPOUNDS FOR TARGETED PROTEIN DEGRADATION OF KINASES” (DANA-FARBER CANCER INSTITUTE, INC., priority 2020, published 2024).

Test [1] has as its target extended human kinome (kinase-like proteins) (Homo sapiens, UniProt P27144). The test can be described thus: Whole cell quantitative proteomics: extended kinome hits.
Test [2] concerns the target T1, extended human kinome (kinase-like proteins) (Homo sapiens, UniProt Q7L8L6).
T1 sequence (Q7L8L6 28-764): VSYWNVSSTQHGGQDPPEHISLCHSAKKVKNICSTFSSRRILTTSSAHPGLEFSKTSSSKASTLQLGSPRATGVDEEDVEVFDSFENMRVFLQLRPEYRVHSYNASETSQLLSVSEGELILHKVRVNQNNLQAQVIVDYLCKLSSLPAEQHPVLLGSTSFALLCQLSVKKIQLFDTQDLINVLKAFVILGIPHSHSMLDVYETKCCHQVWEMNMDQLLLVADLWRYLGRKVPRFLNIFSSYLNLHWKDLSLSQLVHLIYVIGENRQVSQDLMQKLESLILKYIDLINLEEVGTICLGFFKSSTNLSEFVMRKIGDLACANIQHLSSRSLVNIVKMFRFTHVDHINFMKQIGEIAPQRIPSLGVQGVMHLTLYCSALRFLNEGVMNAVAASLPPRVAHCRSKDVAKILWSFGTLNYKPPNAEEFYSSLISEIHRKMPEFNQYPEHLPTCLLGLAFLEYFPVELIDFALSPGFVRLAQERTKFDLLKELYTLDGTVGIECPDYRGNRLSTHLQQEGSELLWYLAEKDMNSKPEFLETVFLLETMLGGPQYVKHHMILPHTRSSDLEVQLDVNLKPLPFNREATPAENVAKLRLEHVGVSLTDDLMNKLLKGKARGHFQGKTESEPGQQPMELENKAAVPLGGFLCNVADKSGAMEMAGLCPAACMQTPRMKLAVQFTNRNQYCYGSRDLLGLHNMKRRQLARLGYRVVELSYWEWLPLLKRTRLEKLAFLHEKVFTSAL
Described as above. The settings on record: Accession Q7L8L6.

Test [3] concerns the target protein kinases (human kinome) (Homo sapiens, UniProt Q16584). Format: cell-based.
Test [4] concerns the target T2, protein kinases (human kinome) (Homo sapiens, UniProt Q9UEE5).
T2 sequence (Q9UEE5 1-414): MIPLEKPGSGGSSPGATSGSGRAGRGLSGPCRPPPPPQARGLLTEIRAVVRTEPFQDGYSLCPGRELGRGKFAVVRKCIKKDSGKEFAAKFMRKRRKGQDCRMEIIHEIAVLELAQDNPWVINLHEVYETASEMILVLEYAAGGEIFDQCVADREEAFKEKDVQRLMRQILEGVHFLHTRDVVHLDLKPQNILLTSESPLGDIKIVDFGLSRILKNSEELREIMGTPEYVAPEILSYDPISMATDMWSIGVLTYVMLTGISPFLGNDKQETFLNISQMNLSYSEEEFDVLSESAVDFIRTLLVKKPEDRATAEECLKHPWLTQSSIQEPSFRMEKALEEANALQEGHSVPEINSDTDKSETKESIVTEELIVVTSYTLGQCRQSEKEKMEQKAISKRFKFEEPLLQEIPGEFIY
Type of test: cell-based. The settings on record: STK17A Q9UEE5.

Test [5] has as its target T3, protein kinases (human kinome) (Homo sapiens, UniProt O94768).
T3 sequence (O94768 1-372): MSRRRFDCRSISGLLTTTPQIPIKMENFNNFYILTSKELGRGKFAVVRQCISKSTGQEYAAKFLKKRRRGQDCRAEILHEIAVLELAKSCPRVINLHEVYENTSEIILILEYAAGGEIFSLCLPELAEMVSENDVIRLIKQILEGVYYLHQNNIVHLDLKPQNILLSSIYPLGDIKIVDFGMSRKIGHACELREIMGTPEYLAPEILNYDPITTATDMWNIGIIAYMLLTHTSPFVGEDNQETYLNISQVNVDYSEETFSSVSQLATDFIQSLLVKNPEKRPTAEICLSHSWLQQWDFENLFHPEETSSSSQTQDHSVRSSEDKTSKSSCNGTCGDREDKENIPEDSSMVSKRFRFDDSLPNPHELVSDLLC
Format: cell-based. The settings on record: for logFC STK17B (O94768): direction down; for logFC: STK17B (O94768).

Test [6] has as its target protein kinases (human kinome) (Homo sapiens, UniProt P41240). Format: cell-based. The settings on record: for logFC of CSK: Accession P41240; for logFC CSK: CSK (P41240), down.
Test [7] addresses protein kinases (human kinome) (Homo sapiens, UniProt P24941). Format: cell-based.

Like-named read-outs stand apart in the source and are kept apart here.

protein kinases (human kinome) (Homo sapiens, UniProt P41240), sequence (P41240 whole entry): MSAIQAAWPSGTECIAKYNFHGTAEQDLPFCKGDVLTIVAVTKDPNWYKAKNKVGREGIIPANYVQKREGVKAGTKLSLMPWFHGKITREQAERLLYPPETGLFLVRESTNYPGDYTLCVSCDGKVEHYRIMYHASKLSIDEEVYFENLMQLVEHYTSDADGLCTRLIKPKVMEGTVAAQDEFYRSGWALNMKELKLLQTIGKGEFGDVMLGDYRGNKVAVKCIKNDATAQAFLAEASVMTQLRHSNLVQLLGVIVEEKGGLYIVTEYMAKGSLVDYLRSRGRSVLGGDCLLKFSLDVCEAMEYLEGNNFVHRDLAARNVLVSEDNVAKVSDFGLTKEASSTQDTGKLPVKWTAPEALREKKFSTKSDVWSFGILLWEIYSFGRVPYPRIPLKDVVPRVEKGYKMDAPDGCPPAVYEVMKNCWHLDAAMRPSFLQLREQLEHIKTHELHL
extended human kinome (kinase-like proteins) (Homo sapiens, UniProt P27144), sequence (P27144 whole entry): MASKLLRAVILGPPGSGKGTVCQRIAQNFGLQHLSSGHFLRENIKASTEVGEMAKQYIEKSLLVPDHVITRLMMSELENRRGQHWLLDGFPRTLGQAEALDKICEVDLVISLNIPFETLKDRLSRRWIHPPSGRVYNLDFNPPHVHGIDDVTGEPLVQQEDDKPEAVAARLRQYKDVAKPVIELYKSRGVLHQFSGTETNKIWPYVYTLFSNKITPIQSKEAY
protein kinases (human kinome) (Homo sapiens, UniProt Q16584), sequence (Q16584 whole entry): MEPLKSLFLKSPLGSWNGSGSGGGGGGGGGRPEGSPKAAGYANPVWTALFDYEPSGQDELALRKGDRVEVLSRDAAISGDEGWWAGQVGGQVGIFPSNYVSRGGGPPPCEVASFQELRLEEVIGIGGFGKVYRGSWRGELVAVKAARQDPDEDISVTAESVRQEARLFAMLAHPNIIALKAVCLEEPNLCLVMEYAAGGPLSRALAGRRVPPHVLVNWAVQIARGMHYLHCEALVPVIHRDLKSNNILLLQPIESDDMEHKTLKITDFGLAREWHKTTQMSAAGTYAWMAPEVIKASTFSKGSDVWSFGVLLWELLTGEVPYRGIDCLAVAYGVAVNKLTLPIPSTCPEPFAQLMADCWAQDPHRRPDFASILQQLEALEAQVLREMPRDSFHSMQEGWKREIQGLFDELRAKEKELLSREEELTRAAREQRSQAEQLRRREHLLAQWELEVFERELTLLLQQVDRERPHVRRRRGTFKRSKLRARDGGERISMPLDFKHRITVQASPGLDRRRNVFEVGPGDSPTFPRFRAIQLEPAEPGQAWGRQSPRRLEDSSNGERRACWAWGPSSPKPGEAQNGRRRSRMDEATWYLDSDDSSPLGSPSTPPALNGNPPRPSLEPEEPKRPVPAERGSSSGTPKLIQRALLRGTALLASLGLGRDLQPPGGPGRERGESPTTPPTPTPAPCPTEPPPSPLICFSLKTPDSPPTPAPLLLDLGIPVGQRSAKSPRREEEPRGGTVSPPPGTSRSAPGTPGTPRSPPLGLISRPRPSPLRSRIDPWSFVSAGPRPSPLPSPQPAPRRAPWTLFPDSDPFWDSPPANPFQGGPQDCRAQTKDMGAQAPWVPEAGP

Consider `CC(=O)c1c(C)c2cnc(Nc3ccc(N4CCN(CCOCCOCCOCCNC(=O)COc5cccc6c5C(=O)N(C5CCC(=O)NC5=O)C6=O)CC4)cn3)nc2n(C2CCCC2)c1=O` (stereo not shown) [BSJ.03.123], for which the “logFC AK4 (P27144)” value in test [1] (experiment wp084) is listed as −0.5103. In addition, in test [2] (experiment wp084), the “logFC FASTKD5” value is recorded as −0.5926.

Turning to `CN(C)C(=O)c1cc2cnc(Nc3ccc(N4CCN(CCCCNC(=O)COc5cccc6c5C(=O)N(C5CCC(=O)NC5=O)C6=O)CC4)cn3)nc2n1C1CCCC1` (stereo not shown) [BSJ.04.132], the “logFC AK4 (P27144)” value in test [1] (experiment wp084) is −0.6551. The “logFC FASTKD5” value in test [2] (experiment wp084) is listed as −0.7073.

With `CS(=O)(=O)Nc1cccc(-c2csc3cnc(Nc4ccc(N5CCN(CCCCCOc6cccc7c6C(=O)N(C6CCC(=O)NC6=O)C7=O)CC5)cc4)nc23)c1` (stereo not shown) [DB0614, N-(3-(2-((4-(4-(5-((2-(2,6-Dioxopiperidin-3-yl)-1,3-dioxoisoindolin-4-yl)oxy)pentyl)piperazin-1-yl)phenyl)amino)thieno[3,2-d]pyrimidin-7-yl)phenyl)methanesulfonamide], the “logFC MAP3K11 (Q16584)” value in test [3] (experiment wp117) is given as −0.7291. For the same compound, the logFC was −1.128 in test [4] (experiment wp045), −0.969 in test [4] (experiment wp117), −0.9829 in test [5] (experiment wp045) and −0.7771 in test [5] (experiment wp117). The “logFC STK17A” value was −1.128 in test [4] (experiment wp045) and −0.969 in test [4] (experiment wp117). The “logFC STK17B (O94768)” value in test [5] (Experiment wp045) is given as −0.9829; in test [5] (Experiment wp117), −0.7771.

Take `Cc1ccc(NC(=O)c2cccc(C(F)(F)F)c2)cc1N1Cc2cnc(Nc3ccc(N4CCN(Cc5cn(CCCCCOc6cccc7c6C(=O)N(C6CCC(=O)NC6=O)C7=O)nn5)CC4)nc3)nc2N(C)C1=O` (stereo not shown) [DB0646, N-(3-(7-((6-(4-((1-(5-((2-(2,6-Dioxopiperidin-3-yl)-1,3-dioxoisoindolin-4-yl)oxy)pentyl)-1H-1,2,3-triazol-4-yl)methyl)piperazin-1-v)pyridin-3-yl)amino)-1-methyl-2-oxo-1,4-dihydropyrimido[4,5-d]pyrimidin-3(2H)-yl)-4-methylphenyl)-3-(trifluoromethyl)benzamide]: the “logFC MAP3K11 (Q16584)” value in test [3] (experiment wp107) is recorded as −0.5077; in test [3] (experiment wp117), −0.4308. The “logFC of CSK” value is given as −1.542 in test [6] (experiment wp045); −1.282 in test [6] (experiment wp103); −0.6868 in test [6] (experiment wp105); −1.311 in test [6] (experiment wp107); −0.6932 in test [6] (experiment wp114); −1.414 in test [6] (experiment wp117). Also, the “logFC of CSK” value in test [6] (experiment wp152) is on record as −1.513; in test [6] (experiment wp160, 2 hr), −0.8308; in test [6] (experiment wp160, 4 hr) it was −1.416; in test [6] (experiment wp160, 8 hr), −1.753; in test [6] (experiment wp172), −0.8538. Also, the “logFC CSK” value in test [6] (experiment wp045) is reported as −1.542; in test [6] (experiment wp103), −1.282; in test [6] (experiment wp105) it was −0.6868; in test [6] (experiment wp107) it was −1.311; in test [6] (experiment wp114), −0.6932; in test [6] (experiment wp117) it was −1.414. The “logFC CSK” value in test [6] (experiment wp152) is −1.513; in test [6] (experiment wp160, 2 hr) it was −0.8308; in test [6] (experiment wp160, 4 hr), −1.416; in test [6] (experiment wp160, 8 hr) it was −1.753; in test [6] (experiment wp172), −0.8538.

Consider `Cc1ccc(NC(=O)c2cccc(C(F)(F)F)c2)cc1N1Cc2cnc(Nc3ccc(N4CCN(CCCOc5cccc6c5C(=O)N(C5CCC(=O)NC5=O)C6=O)CC4)nc3)nc2N(C)C1=O` (stereo not shown) [DB0662], for which the “logFC MAP3K11 (Q16584)” value in test [3] (experiment wp168) is on record as −0.7288. In test [6] (experiment wp168), the “logFC of CSK” value is listed as −1.833 and the “logFC CSK” value is recorded as −1.833.

As for `CC(C)(C)c1nc(-c2cccc(NS(=O)(=O)c3c(F)cccc3F)c2F)c(-c2ccnc(NCCOCCNC(=O)CCOCCOCCNc3cccc4c3CN(C3CCC(=O)NC3=O)C4=O)n2)s1` (stereo not shown) [DD.03.107], the “logFC AK4 (P27144)” value in test [1] (experiment wp137) is reported as −0.3942; in test [1] (experiment wp147, 1 uM), −0.3992; in test [1] (experiment wp147, 2 uM), −0.4045; in test [1] (experiment wp147, 4 uM), −0.898. Further, the “logFC FASTKD5” value is reported as −0.5985 in test [2] (experiment wp147, 1 uM); −0.6839 in test [2] (experiment wp147, 2 uM); −1.268 in test [2] (experiment wp147, 4 uM).

For the compound `Cc1cnc(Nc2ccc(N3CCN(CCOCCOCCNC(=O)COc4cccc5c4C(=O)N(C4CCC(=O)NC4=O)C5=O)CC3)cc2)nc1Nc1cccc(S(=O)(=O)NC(C)(C)C)c1` (stereo not shown) [JWG.118], the “logFC AK4 (P27144)” value in test [1] (experiment wp071) is reported as −0.5314.

Turning to `CNC(=O)c1ccccc1Nc1cc(Nc2ccc(N3CCN(CCOCCOCCNC(=O)CNc4cccc5c4C(=O)N(C4CCC(=O)NC4=O)C5=O)CC3)cc2OC)ncc1C(F)(F)F` (stereo not shown) [MFH.5.103.1], the “logFC FASTKD5” value in test [2] (experiment wp076) is given as −0.3493.

Regarding `CC(C)S(=O)(=O)c1ccccc1Nc1nc(Nc2ccc(N3CCN(CCOCCOCCNC(=O)CNc4cccc5c4C(=O)N(C4CCC(=O)NC4=O)C5=O)CC3)cc2)ncc1Cl` (stereo not shown) [TL12.186], the “logFC FASTKD5” value in test [2] (experiment wp137) is −0.3409. For the same compound, the “logFC MAP3K11 (Q16584)” value is −1.795 in test [3] (experiment wp131) and −1.493 in test [3] (experiment wp137). In addition, the “logFC CDK2 (P24941-1)” value is listed as −0.5971 in test [7] (experiment wp016); −0.5971 in test [7] (experiment wp016, direction of change down); −0.98 in test [7] (experiment wp131); −0.98 in test [7] (experiment wp131, direction of change down); −0.9162 in test [7] (experiment wp137); −0.9162 in test [7] (experiment wp137, direction of change down). Besides, the logFC in test [4] (experiment wp137) is reported as −0.5054. Besides, the “logFC STK17A” value in test [4] (experiment wp137) was −0.5054.

On to `Cc1cc(Nc2ncc(Br)c(Nc3cccc(F)c3C(N)=O)n2)ccc1S(=O)(=O)NCCOCCOCCOCCOCCNc1cccc2c1C(=O)N(C1CCC(=O)NC1=O)C2=O` (stereo not shown) [TMX.02.174], for which the “logFC MAP3K11 (Q16584)” value in test [3] (experiment wp146) was −1.874. Further, the “logFC CDK2 (P24941-1)” value in test [7] (experiment wp146) is given as −2.295; in test [7] (experiment wp146, direction of change down), −2.295.

In the case of `C=CCn1c(=O)c2cnc(Nc3ccc(N4CCN(CCCNc5cccc6c5C(=O)N(C5CCC(=O)NC5=O)C6=O)CC4)cc3)nc2n1-c1cccc(C(C)(C)O)n1` (stereo not shown) [ZNL.02.096], the “logFC FASTKD5” value in test [2] (experiment wp118) is −0.4552.
